Laboratory results from patent US12448518B2, “Phthalocyanine dye compounds, conjugates and methods of use thereof” (Rakuten Medical, Inc., priority 2020, dated 2025).

What was measured:
[1] = tested on: BxPC3 cells; experiment: Cell killing of free dye PIT, CellTox Green Cytotoxicity Assay; assay type: cell-based; settings: BxPC3, 0.00137-1 μg/mL, 690 nm laser 64 J/cm^2, 24 hours after light
Method: The PIT killing activity of free dyes were evaluated using the molecules synthesized as Example 12 and Example 13. BxPC3 cells (#CRL-1687, ATCC, Manassas VA) were plated, 5,000 cells per well, in RPMI-1640 media supplemented with 10% FBS and 1% Penicillin/Streptomycin (complete culture media) in a deep-well 96-well plate. Following overnight incubation at 37° C., the culture media were removed and the cells were incubated in 100 μL complete media with 1, 0.333, 0.111, 0.03704, 0.01235, 0.00412, 0.00137, or 0 μg/mL Example 12, Example 13, or IRDye 700DX carboxylate (control) for one hour at 4° C. […]
The effect of different treatment regimens on cell death was measured using the CellTox™ Green Cytotoxicity Assay (Cat No: G8742, Promega, Madison, WI). […] The CellTox™ Green fluorescence signal was measured at 24 hours after light treatment using a fluorescence plate reader. The cells were then lysed with diluted lysis solution (Cat No: G1821, Promega, Madison, WI), incubated at 37° C. for 30 minutes, and the CellTox™ Green fluorescence signal was measured again post-lysis. The percentages of dead cells were calculated by taking the ratio between background (1× CellTox™ Green in complete culture media without cells)-subtracted CellTox™ Green signal per well prior to and post lysis and multiplying the ratio by 100.

[2] = Singlet oxygen quantum yield, indirect method with chemical quencher (DPBF or ADMA); assay type: physicochemical
Text: Photogeneration quantum yields of singlet oxygen (ΦΔ) were obtained by an indirect method, using either diphenylisobenzofuran (DBPF) or anthracene-9,10-bis-methylmalonate (ADMA) as chemical quenchers in either N,N-dimethylformamide or aqueous media, respectively. Typically, a solution of the phthalocyanine and the quencher was irradiated with a red LED lamp (670 nm) at 5 mW/cm^2. The initial DPBF or ADMA concentrations were kept the same for both the reference and the test samples. The degradation of the DPBF band at 414 nm or ADMA at 401 nm was monitored in a Varian Cary® 50 UV-Vis spectrophotometer, every five seconds in the case of DPBF (up to 30 seconds) and every minute in the case of ADMA (up to five minutes). ZnPc (ΦΔ=0.67) and AlPcSmix (ΦΔ=0.42) were used as references in N,N-dimethylformamide or aqueous media, respectively.
The relative method shown by Eq. (1) was employed for calculations of the ΦΔ:
[formula] where ΦΔ and ΦΔref are the ^1O2 generation quantum yields for the sample and reference, respectively, m and mref are the DPBF or ADMA photobleaching rates in the presence of the phthalocyanine of the invention and the reference, respectively, and I and Iref are the rates of light absorption by the phthalocyanine derivative and reference, respectively. Concentrations of the test compound and reference were chosen such that their respective absorptions at the irradiation wavelength were the same.

[3] = Kinetic (aqueous) solubility in pH 7.4 DPBS, UV quantification; settings: for Solubility* (kinetic): pH 7.4 DPBS, 4 hours, room temperature (25° C.), from 10 mM DMSO stock
[4] = reference in N,N-dimethylformamide; cited from earlier work
[5] = quencher ADMA, aqueous media, 670 nm LED 5 mW/cm^2, reference AlPcSmix

Molecule | ΦΔ (singlet oxygen quantum yield) [2, 5] | Solubility* (kinetic) [3] | also measured
3-((6-((λ^5-azaneyl)oxy)-6-oxohexyl)(3-(((λ5-azaneyl)oxy)sulfonyl)propyl)(3-(((19-(((3-(bis(3-(((λ5-azaneyl)oxy)sulfonyl)propyl)(3-sulfonatopropyl)ammonio)propyl)dimethylsilyl)oxy)-19H-6,11-(azeno)-17,21-(azeno[3]episoindoloazeno)benzo[7,8][1,3,5,10]tetraaza[2]silacycloundecino[4,3-a:11,1-a′]diisoindol-19-yl)oxy)dimethylsilyl)propyl)ammonio)propane-1-sulfonate [Example 12] | B (>0.5) | C (>100 μg/mL) | cell death after illumination (free dye) [1]: dose-dependent cytotoxicity
C[Si](C)(CCCNC(=O)COCC(=O)O)O[Si]1(O[Si](C)(C)CCCNC(=O)NCC(S(=O)(=O)O)S(=O)(=O)O)n2c3c4ccccc4c2N=C2N=C(N=c4c5ccccc5c(n41)=NC1=NC(=N3)c3ccccc31)c1ccccc12.N (centres unmarked) [Example 8, Ammonium 2-(2-((3-(((19-(((3-(3-(2,2-disulfonatoethyl)ureido)propyl)dimethylsilyl)oxy)-19H-6,11-(azeno)-17,21-(azeno[1]episoindoloazeno)benzo[7,8][1,3,5,10]tetraaza[2]silacycloundecino[4,3-a:11,1-a′]diisoindol-19-yl)oxy)dimethylsilyl)propyl)amino)-2-oxoethoxy)acetate] | – | A (≤1 μg/mL) | –
C[Si](C)(CCC[N+](CCCS(=O)(=O)O)(CCCS(=O)(=O)O)CCCS(=O)(=O)O)O[Si-2]123(O[Si](C)(C)CCC[N+](CCCS(=O)(=O)O)(CCCS(=O)(=O)O)CCOCCOCCOCCC(=O)O)n4c5c6ccccc6c4N=C4c6ccccc6C(=[N+]41)N=c1c4ccccc4c(n12)=NC1=[N+]3C(=N5)c2ccccc21.[Na+].[Na+].[Na+].[Na+] [Example 19, Sodium 2-((19-((dimethyl(3-(tris(3-sulfonatopropyl)ammonio)propyl)silyl)oxy)-19H-6,11-(azeno)-17,21-(azeno[3]episoindoloazeno)benzo[7,8][1,3,5,10]tetraaza[2]silacycloundecino[4,3-a:11,1-a′]diisoindol-19-yl)oxy)-2-methyl-6,6-bis(3-sulfonatopropyl)-9,12,15-trioxa-6-aza-2-silaoctadecan-6-ium-18-oate] | B (>0.5) | – | solubility kinetic at 4 h ([3]; 25 °C, pH 7.4, aqueous buffer, kinetic from dmso stock): > 100 µg/mL
C[Si](C)(CCC[N+](CCCCS(=O)(=O)[O-])(CCCCS(=O)(=O)[O-])CCCCS(=O)(=O)[O-])O[Si@@]1(O[Si](C)(C)CCC[N+](CCCCS(=O)(=O)[O-])(CCCCS(=O)(=O)[O-])CCOCCOCCC(=O)[O-])n2c3c4ccccc4c2/N=C2N=C(/N=c4/c5ccccc5/c(n41)=N/C1=NC(=N\3)/c3ccccc31)c1ccccc1\2.[Na+].[Na+].[Na+].[Na+] [Example 18, Sodium 2-((19-((dimethyl(3-(tris(4-sulfonatobutyl)ammonio)propyl)silyl)oxy)-19H-6,11-(azeno)-17,21-(azeno[3]episoindoloazeno)benzo[7,8][1,3,5,10]tetraaza[2]silacycloundecino[4,3-a:11,1-a′]diisoindol-19-yl)oxy)-2-methyl-6,6-bis(4-sulfonatobutyl)-9,12-dioxa-6-aza-2-silapentadecan-6-ium-15-oate] | B (>0.5) | C (>100 μg/mL) | –
C[Si](C)(CCCNC(=O)CCCN(CCCS(=O)(=O)O)CCCS(=O)(=O)O)O[Si]1(O[Si](C)(C)CCCNC(=O)COCC(=O)O)n2c3c4ccccc4c2N=C2N=C(N=c4c5ccccc5c(n41)=NC1=NC(=N3)c3ccccc31)c1ccccc12.N (centres unmarked) [Example 15, Ammonium 2-(2-((3-(((19-(((3-(4-(bis(3-sulfonatopropyl)ammonio)butanamido)propyl)dimethylsilyl)oxy)-19H-6,11-(azeno)-17,21-(azeno[1]episoindoloazeno)benzo[7,8][1,3,5,10]tetraaza[2]silacycloundecino[4,3-a:11,1-a′]diisoindol-19-yl)oxy)dimethylsilyl)propyl)amino)-2-oxoethoxy)acetate] | – | B (>1 μg/mL to ≤100 μg/mL) | –
COCCOCCOCC(=O)NCCC[Si](C)(C)O[Si-2]123(O[Si](C)(C)CCCNC(=O)CCCCC(=O)O)n4c5c6ccccc6c4N=C4c6ccccc6C(=[N+]41)N=c1c4ccccc4c(n12)=NC1=[N+]3C(=N5)c2ccccc21 [Example 1, 6-((3-(dimethyl((19-((15-methyl-10-oxo-2,5,8-trioxa-11-aza-15-silahexadecan-15-yl)oxy)-19H-6,11-(azeno)-17,21-(azeno[3]episoindoloazeno)benzo[7,8][1,3,5,10]tetraaza[2]silacycloundecino[4,3-a:11,1-a′]diisoindol-19-yl)oxy)silyl)propyl)amino)-6-oxohexanoic acid] | – | – | ΦΔ (singlet oxygen quantum yield) ([2]; quencher DPBF, N,N-dimethylformamide, 670 nm LED 5 mW/cm^2, reference ZnPc): A (≤0.5)
4-((6-((λ5-azaneyl)oxy)-6-oxohexyl)(4-(((λ5-azaneyl)oxy)sulfonyl)butyl)(3-(((19-(((3-(bis(4-(((λ5-azaneyl)oxy)sulfonyl)butyl)(4-sulfonatobutyl)ammonio)propyl)dimethylsilyl)oxy)-19H-6,11-(azeno)-17,21-(azeno[3]episoindoloazeno)benzo[7,8][1,3,5,10]tetraaza[2]silacycloundecino[4,3-a:11,1-a′]diisoindol-19-yl)oxy)dimethylsilyl)propyl)ammonio)butane-1-sulfonate [Example 13] | B (>0.5) | C (>100 μg/mL) | cell death after illumination (free dye) [1]: dose-dependent cytotoxicity
C[Si](C)(CCC[N+](CCCCS(=O)(=O)O)(CCCCS(=O)(=O)O)CCCCS(=O)(=O)O)O[Si-2]123(O[Si](C)(C)CCC[N+](CCCCS(=O)(=O)O)(CCCCS(=O)(=O)O)CCOCCOCCOCCC(=O)O)n4c5c6ccccc6c4N=C4c6ccccc6C(=[N+]41)N=c1c4ccccc4c(n12)=NC1=[N+]3C(=N5)c2ccccc21.[Na+].[Na+].[Na+].[Na+] [Example 17, Sodium 2-((19-((dimethyl(3-(tris(4-sulfonatobutyl)ammonio)propyl)silyl)oxy)-19H-6,11-(azeno)-17,21-(azeno[3]episoindoloazeno)benzo[7,8][1,3,5,10]tetraaza[2]silacycloundecino[4,3-a:11,1-a′]diisoindol-19-yl)oxy)-2-methyl-6,6-bis(4-sulfonatobutyl)-9,12,15-trioxa-6-aza-2-silaoctadecan-6-ium-18-oate] | B (>0.5) | – | –
C[Si](C)(CCCNC(=O)COCC(=O)O)O[Si]1(O[Si](C)(C)CCCNC(=O)NCCS(=O)(=O)O)n2c3c4ccccc4c2N=C2N=C(N=c4c5ccccc5c(n41)=NC1=NC(=N3)c3ccccc31)c1ccccc12.N (centres unmarked) [Example 7, Ammonium 2-(2-((3-(((19-((dimethyl(3-(3-(2-sulfonatoethyl)ureido)propyl)silyl)oxy)-19H-6,11-(azeno)-17,21-(azeno[1]episoindoloazeno)benzo[7,8][1,3,5,10]tetraaza[2]silacycloundecino[4,3-a:11,1-a′]diisoindol-19-yl)oxy)dimethylsilyl)propyl)amino)-2-oxoethoxy)acetate] | – | A (≤1 μg/mL) | –
[Zn+2].c1ccc2c(c1)-c1nc-2nc2[n-]c(nc3nc([n-]c4nc(n1)-c1ccccc1-4)-c1ccccc1-3)c1ccccc21 [ZnPc] | – | – | ΦΔ of reference [4]: 0.67
Ammonium 3-((4-((3-(((19-(((3-(2-(carboxymethoxy)acetamido)propyl)dimethylsilyl)oxy)-19H-6,11-(azeno)-17,21-(azeno[3]episoindoloazeno)benzo[7,8][1,3,5,10]tetraaza[2]silacycloundecino[4,3-a:11,1-a′]diisoindol-19-yl)oxy)dimethylsilyl)propyl)amino)-4-oxobutyl)bis(3-sulfopropyl)ammonio)propane-1-sulfonae [Example 5] | B (>0.5) | – | –
